Data on six compounds can be found in patent publication US10898592B2, “Compositions and methods for reducing the risk of post-imaging pancreatitis” (University Of Pittsburgh—Of The Commonwealth System Of …, priority 2015, dated 2021).

Data set [1] relates to calcineurin (NFAT-luciferase). Briefly: NFAT-luciferase activity assay, AR42J cells. The data set is classed as cell-based. The conditions noted are these: for effect on RC (6%)-induced NFAT-luciferase activity: pretreatment, FK506 24 μM, CsA 16 μM, U73122 5 μM, 2-APB 100 μM, BAPTA 64 μM. The protocol: (§1) NFAT-luciferase activity assay. Acinar cells were infected with Ad-NFAT-luciferase following a previously described procedure^10,15,16. The construct includes a luciferase gene placed downstream of an IL-4 promoter which contains nine tandem NFAT binding sites^10. Acinar cells were incubated with the NFAT-driven luciferase adenovirus for 1.5 hr prior to stimulation. All of the stated inhibitors were added for 30 min prior to stimulation with RC. NFAT-luciferase was measured using the luciferase assay system. Briefly, cells were spun at 1,000 rpm for 5 min, washed with PBS, and lysed using reporter lysis 5× buffer (Promega #E397A, Madison, Wis.). Samples were vortexed and spun at 12,000 g for 2 min. Supernatant was plated, and luminescence was measured using a Synergy H1 plate reader (BioTek, Winooski, Vt.) and normalized to total protein.

A further data set deals with NF-κB. The experiment in a line: NF-κB-luciferase activity assay, AR42J cells. The data set is classed as cell-based. Particulars: for effect on RC-induced NF-κB-luciferase levels: U73122 5 μM, 2-APB 100 μM, BAPTA 64 μM. The protocol: NF-κB-luciferase activity assay. AR42J cells were differentiated towards an acinar phenotype by administering dexamethasone (100 nM) for 48-72 hr^17. AR42J cells were infected with Ad-NF-κB luciferase 16 h prior to stimulation using a previously described method^12. Following a wash with DMEM/F12 medium, acinar cells were evenly distributed in a 48-well plate and incubated for 30 min at 37° C. They were incubated with RC at varying concentrations and times. NF-κB-luciferase was measured using a commercially available luciferase assay (Promega, Madison, Wis.). Briefly, cells were spun at 1,000 rpm for 5 min, washed with PBS, and lysed using reporter lysis 5× buffer (Promega, catalog no. E397A). Samples were vortexed and spun at 12,000×g for 2 min. The supernatant was plated, and luminescence was measured using a Synergy H1 plate reader (BioTek, Winooski, Vt.) and normalized to total […].

The next data set deals with pancreas. The experiment in a line: Intra-ductal RC infusion (PEP model) in mice: histological severity, serum amylase. The conditions noted are these: iopamidol (Isovue 300) compared with iohexol; 24 hr. The data set is classed as in vivo, mouse. The source says:
Intra-ductal RC infusion in mice. The procedure for retrograde infusion into the CBD and pancreatic duct has been described before^14. Briefly, Swiss Webster mice were anesthetized with isoflurane. A midline incision was made to reveal the abdominal cavity. The duodenum was flipped to reveal its distal side and held in place by ligatures. […] needle was inserted through the anti-mesenteric aspect of the duodenum to cannulate the CBD. A small bull dog clamp was applied to the distal CBD (near the duodenum) to prevent back flow of the infusate into the duodenal lumen and to hold the cannula in place. A larger bull dog clamp was applied to the proximal CBD (near the liver) to prevent infusion into the liver and thus to direct flow to the pancreatic duct. Total volumes of 50-100 μl of iohexol, iopamidol, or normal saline (NS) were infused at 10-20 μl per min for 5 min using a P33 perfusion pump (Harvard Apparatus, Holliston, Mass.). Upon completion of the infusion, the bull dog clamps were released. The exterior abdominal wound was closed using 7 mm wound clips, and a single injection of buprenorphine (0.075 mg/kg) was given immediately after the surgery. Mice recovered on a heating pad for 30 min after the procedure. They were given free access to food and water after the surgery. Pancreas tissue preparation, histological grading, and serum amylase. The pancreas, duodenum, and spleen were fixed at room temperature for 24 hr in 4% paraformaldehyde. Paraffin-embedded sections were stained with hematoxylin an eosin (HE) and graded using a 20× objective over 10 separate fields in a blinded fashion. Pancreas tissue was graded for edema, inflammatory infiltrate, and necrosis as described by Wildi et al.^67. Whole blood samples were centrifuged at 1500×g for 5 min at 4° C. Serum amylase was measured using a Phadebas kit (Amersham Pharmacia, Rochester N.Y.) as previously described^68.

For the next data set, the system named is primary acinar cells. The experiment in a line: Cell necrosis assay (propidium iodide uptake), primary acinar cells. The conditions noted are these: 6 hr incubation; U73122 5 μM; 2-APB 100 μM; BAPTA 64 μM; IKK-2 20 μM; FK506 24 μM; CsA 16 μM. The data set is classed as cell-based, mouse. The protocol:
Cell necrosis assay. Acinar cells were incubated in a 48-well plate with 50 μg/ml of propidium iodide (PI) for 30 min prior to addition of RC. Fluorescence was measured at 536 nm excitation and 617 nm emission wavelengths over time a time course of up to 6 hr. Fluorescence was measured after cell lysis with 0.5% Triton-X 100 was used to normalize the results relative to total DNA.

Another data set deals with AR42J cells. The experiment in a line: Ca^2+ signals (Fluo-4AM) in AR42J cells. The conditions noted are these: U73122 5 μM; 2-APB 100 μM. The data set is classed as cell-based.
For data set [2] the following is noted: high-affinity Ca^2+-sensing dye (Invitrogen); cited from earlier work.
Data set [3] deals with calcineurin (NFAT-luciferase). The experiment in a line: NFAT-luciferase activity assay (calcineurin activation), mouse primary acinar cells. The data set is classed as cell-based. The conditions noted are these: 2-APB 100 μM, 30 min pre-treatment; RC 9%. Here is the method: as §1

Each structure is given as a SMILES string. Entries after “also recorded” stand apart in the source; their conditions may differ.

For the compound `C[C@H](O)C(=O)Nc1c(I)c(C(=O)NC(CO)CO)c(I)c(C(=O)NC(CO)CO)c1I` [iopamidol], in data set [1] (AR42J cells), the “calcineurin/NFAT activation on exposure to radiocontrast” value is “induced NFAT activation in a concentration-dependent manner”. Moreover, the “NF-κB-luciferase on exposure to radiocontrast” value in the data set on NF-κB (AR42J cells, 6 hr) is “induced NF-κB activation in a concentration-dependent manner”. Further, in the data set on pancreas, the “induction of pancreatitis by intraductal infusion (histological severity, serum amylase, serum IL-6)” value is “similar; also recorded: induces pancreatitis”.
As for `COc1ccc2c(c1)CC[C@@H]1[C@@H]2CC[C@]2(C)[C@@H](NCCCCCCN3C(=O)C=CC3=O)CC[C@@H]12` [U73122], the “effect on RC (12%)-induced acinar cell injury (PI uptake)” value in the data set with primary acinar cells is given as “prevented”. In addition, the “effect on RC (6%)-induced NFAT-luciferase activity” value in data set [1] was “prevented”. Further, the “effect on RC-induced NF-κB-luciferase levels” value in the data set with NF-κB was “reduced”. Also, in the data set with AR42J cells, the “effect on RC (25%)-induced Ca^2+ signals” value is “prevented”.
Consider `CC(=O)OCOC(=O)CN(CC(=O)OCOC(C)=O)c1ccc(C)cc1OCCOc1cc(-c2c3cc(F)c(=O)cc-3oc3cc(OCOC(C)=O)c(F)cc23)ccc1N(CC(=O)OCOC(C)=O)CC(=O)OCOC(C)=O` [Fluo-4AM], for which the equilibrium dissociation constant (Kd) in data set [2] was 0.3 µM.
As for `OC[C@@H](O)[C@@H](O)[C@H](O)[C@H](O)CO` [mannitol], the “NF-κB activation under hyperosmolar control” value in the data set with NF-κB (mannitol at concentrations equimolar to RC) is given as “failed to cause an increase”.
On to `CCCCCCCCCCC[C@@H](C[C@@H]1OC(=O)[C@H]1CCCCCC)OC(=O)[C@H](CC(C)C)NC=O` [Orlistat], for which the “effect on activation of NF-κB with RC” value with NF-κB (Orlistat pretreatment (50-100 μM), RC 16%) is on record as “did not significantly reduce”.
In the case of `NCCOB(c1ccccc1)c1ccccc1` [2-APB], in the data set on primary acinar cells, the “effect on RC (12%)-induced acinar cell injury (PI uptake)” value is recorded as “prevented”. The “effect on RC (6%)-induced NFAT-luciferase activity” value in data set [1] was “prevented”. Further, the “effect on RC-induced NF-κB-luciferase levels” value in the data set on NF-κB is “reduced”. Further, the “reduction of RC-induced NFAT-luciferase rise” value in data set [3] is given as 47%. Besides, the “effect on RC (25%)-induced Ca^2+ signals” value with AR42J cells was “prevented”.
